Laboratory results from BigSolDB 2.1.

Compound `Cc1[nH]nc2cc([N+](=O)[O-])ccc12` has a solubility (mole fraction) (in ethanol, 278.15 K) of 0.00471, a solubility (mole fraction) (in ethanol, 283.15 K) of 0.00539 and a solubility (mole fraction) (in ethanol, 288.15 K) of 0.00619. The solubility (mole fraction) (in ethanol, 293.15 K) was 0.0073, the solubility (mole fraction) (in ethanol, 298.15 K) was 0.00866 and the solubility (mole fraction) (in ethanol, 303.15 K) was 0.0102. It also gave a solubility (mole fraction) (in ethanol, 308.15 K) of 0.0118, a solubility (mole fraction) (in ethanol, 313.15 K) of 0.0137 and a solubility (mole fraction) (in ethanol, 318.15 K) of 0.016. The solubility (mole fraction) (in ethanol, 323.15 K) was 0.019, the solubility (mole fraction) (in ethanol, 328.15 K) was 0.022 and the solubility (mole fraction) (in n-propanol, 278.15 K) was 0.0051. It also gave a solubility (mole fraction) (in n-propanol, 283.15 K) of 0.00574, a solubility (mole fraction) (in n-propanol, 288.15 K) of 0.00682 and a solubility (mole fraction) (in n-propanol, 293.15 K) of 0.00793. The solubility (mole fraction) (in n-propanol, 298.15 K) was 0.00901, the solubility (mole fraction) (in n-propanol, 303.15 K) was 0.0103 and the solubility (mole fraction) (in n-propanol, 308.15 K) was 0.0118. For the same compound, the solubility (mole fraction) (in n-propanol, 313.15 K) was 0.0133, the solubility (mole fraction) (in n-propanol, 318.15 K) was 0.0149 and the solubility (mole fraction) (in n-propanol, 323.15 K) was 0.017. The solubility (mole fraction) (in n-propanol, 328.15 K) was 0.0194, the solubility (mole fraction) (in water, 278.15 K) was 2.06e-05 and the solubility (mole fraction) (in water, 283.15 K) was 2.7e-05. For the same compound, the solubility (mole fraction) (in water, 288.15 K) was 3.52e-05, the solubility (mole fraction) (in water, 293.15 K) was 4.67e-05 and the solubility (mole fraction) (in water, 298.15 K) was 6.15e-05. For the same compound, the solubility (mole fraction) (in water, 303.15 K) was 7.91e-05, the solubility (mole fraction) (in water, 308.15 K) was 9.98e-05 and the solubility (mole fraction) (in water, 313.15 K) was 0.000123. For the same compound, the solubility (mole fraction) (in water, 318.15 K) was 0.000151, the solubility (mole fraction) (in water, 323.15 K) was 0.000182 and the solubility (mole fraction) (in water, 328.15 K) was 0.000222.
